The structures appear in SMILES notation. Calls of active or inactive are those of the source. The rule behind the calls is not given here. *1 amine or outer side, *2 acyl side, *3 side chain or, on linkers, in order; H or OH if unused. Where a SMILES comes first, the peptide text is derived from it. The star is where a group is joined. AMC = Cc1cc(=O)oc2cc(N*)ccc12; Suc = O=C(CCC(=O)[*:2])[*:1]; Decanoyl = CCCCCCCCCC(=O)*

Assay [1] addresses T1, NAD-dependent protein deacetylase sirtuin-7 (Homo sapiens) (UniProt Q9NRC8).
T1 sequence (whole entry): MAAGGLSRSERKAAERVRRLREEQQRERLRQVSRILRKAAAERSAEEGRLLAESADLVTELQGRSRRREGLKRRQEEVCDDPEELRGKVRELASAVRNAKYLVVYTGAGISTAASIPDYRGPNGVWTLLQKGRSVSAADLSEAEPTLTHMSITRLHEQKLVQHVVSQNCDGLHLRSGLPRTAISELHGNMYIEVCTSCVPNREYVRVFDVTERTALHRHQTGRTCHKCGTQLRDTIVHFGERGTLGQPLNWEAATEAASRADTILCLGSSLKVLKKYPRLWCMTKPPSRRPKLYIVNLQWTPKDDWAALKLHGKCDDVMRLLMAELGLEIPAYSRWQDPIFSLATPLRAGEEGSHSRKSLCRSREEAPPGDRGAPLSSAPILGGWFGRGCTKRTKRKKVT
The experiment in a line: Substrate activity at human N-terminal His-tagged SIRT7 (68 to 354 residues) expressed in Escherichia coli at 0.5 uM measured after 2 hrs in presence of NAD+ and trypsin by fluorescence assay.

In assay [2] the target is T2, NAD-dependent protein deacetylase sirtuin-2 (Homo sapiens) (UniProt Q8IXJ6).
T2 sequence (whole entry): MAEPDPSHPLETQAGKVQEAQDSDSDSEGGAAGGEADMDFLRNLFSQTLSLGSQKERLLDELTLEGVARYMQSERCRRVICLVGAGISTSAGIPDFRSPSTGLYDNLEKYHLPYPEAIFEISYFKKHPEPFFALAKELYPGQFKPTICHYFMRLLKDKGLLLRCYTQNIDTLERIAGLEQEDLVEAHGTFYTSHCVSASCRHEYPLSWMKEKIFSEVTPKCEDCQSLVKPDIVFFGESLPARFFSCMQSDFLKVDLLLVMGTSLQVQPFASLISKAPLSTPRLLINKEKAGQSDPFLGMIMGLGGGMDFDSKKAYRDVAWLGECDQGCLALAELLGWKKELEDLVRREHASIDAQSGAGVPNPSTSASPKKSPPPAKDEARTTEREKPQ
In words: Substrate activity at human N-terminal His-tagged SIRT2 (56 to 356 residues) expressed in Escherichia coli at 0.5 uM measured after 2 hrs in presence of NAD+ and trypsin by fluorescence assay.

Assay [3] concerns the target NAD-dependent protein deacylase sirtuin-6 (Homo sapiens) (UniProt Q8N6T7). In words: Substrate activity at human N-terminal His-tagged SIRT6 (1 to 355 residues) expressed in Escherichia coli at 5 uM measured after 2 hrs in presence of NAD+ and trypsin by fluorescence assay.
The target of assay [4] is T2, NAD-dependent protein deacetylase sirtuin-2 (Homo sapiens). In words: Substrate activity at human N-terminal His-tagged SIRT2 (56 to 356 residues) expressed in Escherichia coli at 50 uM measured after 2 hrs in presence of NAD+ and trypsin by fluorescence assay.
The target is the same in assay [5]. The experiment in a line: Substrate activity at human N-terminal His-tagged SIRT2 (56 to 356 residues) expressed in Escherichia coli at 5 uM measured after 2 hrs in presence of NAD+ and trypsin by fluorescence assay.
For assay [6], the target named is T3, NAD-dependent protein deacetylase sirtuin-3, mitochondrial (Homo sapiens) (UniProt Q9NTG7).
T3 sequence (whole entry): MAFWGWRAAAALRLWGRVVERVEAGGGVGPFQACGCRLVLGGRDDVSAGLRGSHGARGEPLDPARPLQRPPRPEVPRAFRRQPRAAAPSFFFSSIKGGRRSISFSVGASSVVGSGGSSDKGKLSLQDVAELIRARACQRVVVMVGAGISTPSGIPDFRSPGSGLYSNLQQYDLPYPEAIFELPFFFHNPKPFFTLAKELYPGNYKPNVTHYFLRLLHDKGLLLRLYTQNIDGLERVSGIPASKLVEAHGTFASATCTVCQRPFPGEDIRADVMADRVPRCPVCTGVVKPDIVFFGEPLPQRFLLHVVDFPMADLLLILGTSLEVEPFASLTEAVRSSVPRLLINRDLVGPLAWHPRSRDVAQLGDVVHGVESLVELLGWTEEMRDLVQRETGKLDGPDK
The experiment in a line: Substrate activity at human N-terminal His-tagged SIRT3 (122 to 391 residues) expressed in Escherichia coli at 5 uM measured after 2 hrs in presence of NAD+ and trypsin by fluorescence assay.

Assay [7] concerns the target T1, NAD-dependent protein deacetylase sirtuin-7 (Homo sapiens). In words: Substrate activity at human N-terminal His-tagged SIRT7 (68 to 354 residues) expressed in Escherichia coli at 50 uM measured after 2 hrs in presence of NAD+ and trypsin by fluorescence assay.
Assay [8] has as its target T2, NAD-dependent protein deacetylase sirtuin-2 (Homo sapiens). The experiment in a line: Substrate activity at human N-terminal His-tagged SIRT2 (56 to 356 residues) expressed in Escherichia coli at 5 uM measured after 1 hr in presence of NAD+ and trypsin by fluorescence assay.
The target of assay [9] is T3, NAD-dependent protein deacetylase sirtuin-3, mitochondrial (Homo sapiens). The experiment in a line: Substrate activity at human N-terminal His-tagged SIRT3 (122 to 391 residues) expressed in Escherichia coli at 50 uM measured after 2 hrs in presence of NAD+ and trypsin by fluorescence assay.
The target of assay [10] is NAD-dependent protein deacylase sirtuin-6 (Homo sapiens) (UniProt Q8N6T7). In words: Substrate activity at human N-terminal His-tagged SIRT6 (1 to 355 residues) expressed in Escherichia coli at 0.5 uM measured after 2 hrs in presence of NAD+ and trypsin by fluorescence assay.
Assay [11] addresses T4, NAD-dependent protein deacetylase sirtuin-1 (Homo sapiens) (UniProt Q96EB6).
T4 sequence (whole entry): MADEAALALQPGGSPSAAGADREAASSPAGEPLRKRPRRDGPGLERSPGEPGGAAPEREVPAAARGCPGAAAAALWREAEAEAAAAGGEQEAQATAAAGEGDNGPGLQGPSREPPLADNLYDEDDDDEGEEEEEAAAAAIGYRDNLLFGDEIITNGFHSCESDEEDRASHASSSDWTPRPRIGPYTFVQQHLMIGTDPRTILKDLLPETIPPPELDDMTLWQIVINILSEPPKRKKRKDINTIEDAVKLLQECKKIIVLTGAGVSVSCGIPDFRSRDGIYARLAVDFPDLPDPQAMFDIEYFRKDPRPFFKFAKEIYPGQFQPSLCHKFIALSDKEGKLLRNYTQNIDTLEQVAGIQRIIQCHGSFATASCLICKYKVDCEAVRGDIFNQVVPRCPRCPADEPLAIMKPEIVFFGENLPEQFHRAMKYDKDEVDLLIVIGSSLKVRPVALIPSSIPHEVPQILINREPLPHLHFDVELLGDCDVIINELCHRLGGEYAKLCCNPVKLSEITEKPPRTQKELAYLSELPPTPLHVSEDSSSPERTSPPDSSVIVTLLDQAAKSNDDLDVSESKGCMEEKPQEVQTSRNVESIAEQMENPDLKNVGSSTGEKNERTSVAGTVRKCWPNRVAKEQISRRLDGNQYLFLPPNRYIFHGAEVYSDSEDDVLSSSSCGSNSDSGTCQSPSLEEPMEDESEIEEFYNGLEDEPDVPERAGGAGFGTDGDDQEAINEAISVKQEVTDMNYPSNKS
The experiment in a line: Substrate activity at human N-terminal His-tagged SIRT1 (183 to 664 residues) expressed in Escherichia coli at 50 uM measured after 2 hrs in presence of NAD+ and trypsin by fluorescence assay.

Assay [12] deals with NAD-dependent protein deacylase sirtuin-6 (Homo sapiens) (UniProt Q8N6T7). The experiment in a line: Substrate activity at human N-terminal His-tagged SIRT6 (1 to 355 residues) expressed in Escherichia coli at 50 uM measured after 2 hrs in presence of NAD+ and trypsin by fluorescence assay.
Assay [13] deals with T4, NAD-dependent protein deacetylase sirtuin-1 (Homo sapiens). In words: Substrate activity at human N-terminal His-tagged SIRT1 (183 to 664 residues) expressed in Escherichia coli at 5 uM measured after 2 hrs in presence of NAD+ and trypsin by fluorescence assay.
For assay [14], the target named is T3, NAD-dependent protein deacetylase sirtuin-3, mitochondrial (Homo sapiens). In words: Substrate activity at human N-terminal His-tagged SIRT3 (122 to 391 residues) expressed in Escherichia coli at 0.5 uM measured after 2 hrs in presence of NAD+ and trypsin by fluorescence assay.
Assay [15] has as its target NAD-dependent protein deacylase sirtuin-5, mitochondrial (Homo sapiens) (UniProt Q9NXA8). The experiment in a line: Substrate activity at human N-terminal His-tagged SIRT5 (34 to 302 residues) expressed in Escherichia coli at 0.5 uM measured after 2 hrs in presence of NAD+ and trypsin by fluorescence assay.
For assay [16], the target named is T4, NAD-dependent protein deacetylase sirtuin-1 (Homo sapiens). In words: Substrate activity at human N-terminal His-tagged SIRT1 (183 to 664 residues) expressed in Escherichia coli at 0.5 uM measured after 2 hrs in presence of NAD+ and trypsin by fluorescence assay.
The target of assay [17] is NAD-dependent protein deacylase sirtuin-5, mitochondrial (Homo sapiens) (UniProt Q9NXA8). In words: Substrate activity at human N-terminal His-tagged SIRT5 (34 to 302 residues) expressed in Escherichia coli at 50 uM measured after 2 hrs in presence of NAD+ and trypsin by fluorescence assay.
Assay [18] addresses T1, NAD-dependent protein deacetylase sirtuin-7 (Homo sapiens). The experiment in a line: Substrate activity at human N-terminal His-tagged SIRT7 (68 to 354 residues) expressed in Escherichia coli at 5 uM measured after 2 hrs in presence of NAD+ and trypsin by fluorescence assay.
For assay [19], the target named is NAD-dependent protein deacylase sirtuin-5, mitochondrial (Homo sapiens) (UniProt Q9NXA8). In words: Substrate activity at human N-terminal His-tagged SIRT5 (34 to 302 residues) expressed in Escherichia coli at 5 uM measured after 2 hrs in presence of NAD+ and trypsin by fluorescence assay.
For assay [20] the target is unchanged. In words: Substrate activity at human N-terminal His-tagged SIRT5 (34 to 302 residues) expressed in Escherichia coli at 5 uM measured after 1 hr in presence of NAD+ and trypsin by fluorescence assay.

Chain of NAD-dependent protein deacylase sirtuin-6 (Homo sapiens) (Q8N6T7 whole entry, the tested form may be a part): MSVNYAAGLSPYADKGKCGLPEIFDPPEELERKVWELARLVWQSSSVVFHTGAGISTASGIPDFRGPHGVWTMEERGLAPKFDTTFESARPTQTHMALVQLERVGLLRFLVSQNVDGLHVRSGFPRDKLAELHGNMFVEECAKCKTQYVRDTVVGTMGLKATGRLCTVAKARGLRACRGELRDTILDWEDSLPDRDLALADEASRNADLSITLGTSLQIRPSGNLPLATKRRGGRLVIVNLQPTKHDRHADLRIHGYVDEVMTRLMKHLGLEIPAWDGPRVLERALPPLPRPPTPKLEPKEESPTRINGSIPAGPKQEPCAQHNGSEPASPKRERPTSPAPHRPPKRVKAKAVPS
Chain of NAD-dependent protein deacylase sirtuin-5, mitochondrial (Homo sapiens) (Q9NXA8 37-310 limits assumed): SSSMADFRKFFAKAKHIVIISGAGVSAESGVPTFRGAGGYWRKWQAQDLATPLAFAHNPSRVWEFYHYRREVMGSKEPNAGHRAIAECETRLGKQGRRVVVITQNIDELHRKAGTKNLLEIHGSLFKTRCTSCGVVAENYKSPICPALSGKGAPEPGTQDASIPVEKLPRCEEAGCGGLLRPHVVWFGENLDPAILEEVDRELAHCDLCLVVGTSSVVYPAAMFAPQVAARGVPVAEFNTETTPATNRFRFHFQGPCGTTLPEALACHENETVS

On to `CCCCCCCCCC(=O)NCCCC[C@H](NC(=O)[C@H](CC(=O)O)NC(=O)[C@@H](NC(=O)[C@H](CCC(=O)O)NC(C)=O)[C@@H](C)O)C(=O)Nc1ccc2c(C)cc(=O)oc2c1` (Ac-ETDK(Decanoyl)-{AMC}), for which the Activity was 0.28 RFU in [1]; 2.97 RFU in [2]; 0.33 RFU in assay [3]; 79.9 RFU in assay [4]; 20.6 RFU in assay [5]; 0.66 RFU in assay [6]. For the same molecule, the Activity in assay [7] was 0.73 RFU; in [9], 1.86 RFU; in assay [10] it was 0.39 RFU; in assay [11] it was 4.13 RFU; in assay [12], 0.73 RFU; in assay [13] it was 1.37 RFU. Also, the Activity in [14] came out at 0.51 RFU; in [15] it was 0.3 RFU; in assay [16] it was 2.97 RFU; in [17], 1.24 RFU; in [18] it was 0.38 RFU; in [19] it was 0.42 RFU. For the same molecule, the result in assay [8] was Active.
In the case of `CC(=O)N[C@@H](CO)C(=O)N[C@@H](CC(C)C)C(=O)NCC(=O)N[C@@H](CCCCNC(=O)CCC(=O)O)C(=O)Nc1ccc2c(C)cc(=O)oc2c1` (Ac-SLGK(Suc)-{AMC}), the Activity amounted to 0.3 RFU in assay [1]; 0.24 RFU in [2]; 0.37 RFU in assay [3]; 1.03 RFU in assay [4]; 0.25 RFU in assay [5]; 0.53 RFU in assay [6]. The Activity in assay [7] is 1.18 RFU; in assay [9], 1.32 RFU; in assay [10] it was 0.38 RFU; in [11], 1.05 RFU; in assay [12], 1.18 RFU; in assay [13], 0.44 RFU. Moreover, the Activity in assay [14] was 0.48 RFU; in assay [15], 3.36 RFU; in assay [16], 0.24 RFU; in assay [17], 1.5 RFU; in [18] it was 0.41 RFU; in [19] it was 21.5 RFU. Besides, the result in [20] was Active.
As to `CCCCCCCCCC(=O)NCCCC[C@H](NC(=O)[C@@H](NC(=O)[C@H](CO)NC(=O)[C@H](CO)NC(C)=O)[C@@H](C)CC)C(=O)Nc1ccc2c(C)cc(=O)oc2c1` (Ac-SSIK(Decanoyl)-{AMC}), the Activity in assay [1] turned out to be 0.29 RFU; in assay [2] it was 1.38 RFU; in assay [3], 0.3 RFU; in assay [4], 13.5 RFU; in [5] it was 7.07 RFU; in assay [6] it was 1.04 RFU. The Activity came out at 0.73 RFU in assay [7]; 1.64 RFU in assay [9]; 0.4 RFU in assay [10]; 1.34 RFU in [11]; 0.73 RFU in assay [12]; 2.13 RFU in assay [13]. Also, the Activity in assay [14] was determined as 0.67 RFU; in [15], 0.31 RFU; in assay [16] it was 1.38 RFU; in assay [17], 1.08 RFU; in [18], 1.03 RFU; in [19] it was 0.39 RFU. In [8], the result was Active.

The record behind these values is ChEMBL document CHEMBL4680222, “Sensitive fluorogenic substrates for sirtuin deacylase inhibitor discovery” (Eur J Med Chem, 2020).
